According to publication PMC2034084, “Pharmacokinetics and binding of the bioreductive probe for hypoxia, NITP: effect of route of administration” (British Journal of Cancer, 1995):
Several values for one entry are separate records, joined by “and”; a condition that tells them apart may be missing. Equal entries are not always repeated.

What was measured:
[1] = Solubility of NITP in water and in Molecusol HPB solution; type: physicochemical; conditions: Molecusol HPB solution vs water
From the text: (§1) Britsh Journal of Cancer (1995) 72, 1462-1468 ft (32) 1995 Stockton Press All rights reserved 0007-0920/95 $12.00 Pharmacokinetics and binding of the bioreductive probe for hypoxia, NITP: effect of route of administration RJ Hodgkiss, MRL Stratford, MF Dennis and SA Hill Gray Laboratory Cancer Research Trust, P.O. Box 100, Mount Vernon Hospital, Northwood, Middlesex HA6 2JR, UK. Summary The novel compound 7-[4'-(2-nitroimidazol-l-yl)-butyl]-theophylline (NITP) can be used as an immunologically detectable probe for hypoxic cells. Because of the limited water solubility of NITP, it has been administered dissolved in peanut oil with 10% dimethylsulphoxide (DMSO). A new aqueous formulation has been devised, based on a 50% solution of a modified P-cyclodextrin (Molecusol HPB), which increases the water solubility of NITP 10-fold. […] Binding of the marker to hypoxic cells within tumours was also measured after the different routes of administration. […] The novel compound 7-[4'-(2-nitroimidazol-1-yl)-butyl]- theophylline (NITP), has been described as an immuno- logically detectable bioreductive probe for hypoxic cells (Hodgkiss et al., 1991), and appears to offer promise as a method of quantifying tumour hypoxia in vivo. […]

[2] = Plasma and tumour pharmacokinetics of NITP by HPLC after different routes and vehicles; type: in vivo, CBA mice; conditions: for AUC s.e.m. Tumour: CaNT tumour
From the text: Britsh Journal of Cancer (1995) 72, 1462-1468 ft (32) 1995 Stockton Press All rights reserved 0007-0920/95 $12.00 Pharmacokinetics and binding of the bioreductive probe for hypoxia, NITP: effect of route of administration RJ Hodgkiss, MRL Stratford, MF Dennis and SA Hill Gray Laboratory Cancer Research Trust, P.O. Box 100, Mount Vernon Hospital, Northwood, Middlesex HA6 2JR, UK. Summary The novel compound 7-[4'-(2-nitroimidazol-l-yl)-butyl]-theophylline (NITP) can be used as an immunologically detectable probe for hypoxic cells. Because of the limited water solubility of NITP, it has been administered dissolved in peanut oil with 10% dimethylsulphoxide (DMSO). A new aqueous formulation has been devised, based on a 50% solution of a modified P-cyclodextrin (Molecusol HPB), which increases the water solubility of NITP 10-fold. The pharmacokinetics of NITP in plasma and tumours have been compared following oral and intraperitoneal (i.p.) administration of the NITP in Molecusol, i.p. administration of NITP dissolved in peanut oil + 10% DMSO and injection of a near-saturated aqueous solution of the drug intravenously via the tail vein or i.p. or directly into the tumours. Binding of the marker to hypoxic cells within tumours was also measured after the different routes of administration. The Molecusol vehicle was unexpectedly toxic when administered i.p., but there was no toxicity from NITP dissolved in Molecusol when administered orally. […] Binding of NITP within tumours has also been observed following direct injection of the drug, with minimal whole-body exposure to NITP. […] In particular, bioreductive drugs are specifically activated in hypoxic cells and can target those cells that are resistant to radiotherapy (for review see Stratford, 1992). Numerous methods have been proposed for measuring tumour hypoxia (for review see Hodgkiss and Wardman, 1992), in the hope that this would allow treatment to be optimised for individual patients on the basis of the oxygen status of their tumours. In particular, the hypoxia-specific binding of isotopically labelled 2-nitroimidazoles has been used to identify hypoxic cells in tumours, (e.g. Chapman et al., 1982; Franko and Chapman, 1982; Garrecht and Chap- man, 1983; Raleigh et al., 1985; Rasey et al., 1985; Urtasun et al., 1986). Immunological detection of 2-nitroimidazoles has been described (Raleigh et al., 1987; Hodgkiss et al., 1991; Lord et al., 1993) and avoids the administration of radioactive labels, which would be particularly desirable for clinical measurement of tumour hypoxia. The novel compound 7-[4'-(2-nitroimidazol-1-yl)-butyl]- theophylline (NITP), has been described as an immuno- logically detectable bioreductive probe for hypoxic cells (Hodgkiss et al., 1991), and appears to offer promise as a method of quantifying tumour hypoxia in vivo. However, the water solubility of NITP is only c. 2 x 10^-3 M at 20'C and its administration in vivo, dissolved in water or saline, would require an inconveniently large volume of drug solution to be given to achieve an adequate dose level of c. 0.45 lsmol g-'. To circumvent this problem, NITP has been administered in vivo as a solution in peanut oil + 10% DMSO (Hodgkiss et al., 1991). While this formulation has given satisfactory results in the tumour models used, it is clearly unsuitable for clinical administration, and an aqueous preparation of the drug would be preferable. ,-Cyclodextrin consists of seven glucose units joined into a ring, taking up the shape of a three-dimensional torus with a hydrophobic cavity. 'Guest' molecules of a suitable size can fit into the central cavity, and the inclusion complex thus formed can increase the aqueous solubility of lipophilic com- pounds (Szejtli, 1982). […] This paper describes the use of a modified 2-hydroxy-propyl-p-cyclodextrin (Mole- cusol HPB) as an agent for preparing aqueous solutions of NITP. […]

CaNT tumours = assay: Bound adducts of NITP in cells from tumours, fluorescent immunochemical staining and flow cytometry; type: in vivo, CBA mice; conditions: for proportion of total cells in the region of bound NITP metabolites: control region 1%
From the text: Britsh Journal of Cancer (1995) 72, 1462-1468 ft (32) 1995 Stockton Press All rights reserved 0007-0920/95 $12.00 Pharmacokinetics and binding of the bioreductive probe for hypoxia, NITP: effect of route of administration RJ Hodgkiss, MRL Stratford, MF Dennis and SA Hill Gray Laboratory Cancer Research Trust, P.O. Box 100, Mount Vernon Hospital, Northwood, Middlesex HA6 2JR, UK. Summary The novel compound 7-[4'-(2-nitroimidazol-l-yl)-butyl]-theophylline (NITP) can be used as an immunologically detectable probe for hypoxic cells. Because of the limited water solubility of NITP, it has been administered dissolved in peanut oil with 10% dimethylsulphoxide (DMSO). A new aqueous formulation has been devised, based on a 50% solution of a modified P-cyclodextrin (Molecusol HPB), which increases the water solubility of NITP 10-fold. The pharmacokinetics of NITP in plasma and tumours have been compared following oral and intraperitoneal (i.p.) administration of the NITP in Molecusol, i.p. administration of NITP dissolved in peanut oil + 10% DMSO and injection of a near-saturated aqueous solution of the drug intravenously via the tail vein or i.p. or directly into the tumours. Binding of the marker to hypoxic cells within tumours was also measured after the different routes of administration. The Molecusol vehicle was unexpectedly toxic when administered i.p., but there was no toxicity from NITP dissolved in Molecusol when administered orally. […] Binding of NITP within tumours has also been observed following direct injection of the drug, with minimal whole-body exposure to NITP. […] In particular, bioreductive drugs are specifically activated in hypoxic cells and can target those cells that are resistant to radiotherapy (for review see Stratford, 1992). Numerous methods have been proposed for measuring tumour hypoxia (for review see Hodgkiss and Wardman, 1992), in the hope that this would allow treatment to be optimised for individual patients on the basis of the oxygen status of their tumours. In particular, the hypoxia-specific binding of isotopically labelled 2-nitroimidazoles has been used to identify hypoxic cells in tumours, (e.g. Chapman et al., 1982; Franko and Chapman, 1982; Garrecht and Chap- man, 1983; Raleigh et al., 1985; Rasey et al., 1985; Urtasun et al., 1986). […] The novel compound 7-[4'-(2-nitroimidazol-1-yl)-butyl]- theophylline (NITP), has been described as an immuno- logically detectable bioreductive probe for hypoxic cells (Hodgkiss et al., 1991), and appears to offer promise as a method of quantifying tumour hypoxia in vivo. […]

[3] = Toxicity and tolerability after oral or i.p. administration; type: in vivo, mice
From the text: as §1

[4] = 0.45 umol g-1 i.p. in peanut oil + 10% DMSO
[5] = 0.45 and 0.09 umol g-1 oral in Molecusol
[6] = Molecusol HPB i.p. 0.09 umol g-1
[7] = Molecusol HPB i.p. 0.45 umol g-1
[8] = Molecusol HPB oral 0.09 umol g-1
[9] = Molecusol HPB oral 0.45 umol g-1, pooled data for three experiments
[10] = Molecusol HPB oral (footnote a), dose printed 0
[11] = Peanut oil/DMSO i.p. 0.45 umol g-1
[12] = plasma, Molecusol HPB i.p. 0.09 umol g-1
[13] = plasma, Molecusol HPB i.p. 0.45 umol g-1
[14] = plasma, Molecusol HPB oral 0.09 umol g-1
[15] = plasma, Molecusol HPB oral 0.45 umol g-1, pooled data for three experiments
[16] = plasma, Molecusol HPB oral (footnote a), dose printed 0
[17] = plasma, Peanut oil/DMSO i.p. 0.45 umol g-1
[18] = plasma, Saline i.p. 0.015 umol g-1
[19] = plasma, Saline i.t. 0.006 umol g-1
[20] = saline i.v. 0.015 umol g-1, non-linear regression, biphasic curve

In the case of `Cn1c(=O)c2c(ncn2CCCCn2ccnc2[N+](=O)[O-])n(C)c1=O` [NITP, 7-[4'-(2-nitroimidazol-l-yl)-butyl]-theophylline], the “improvement in the solubility of NITP over that in water alone” value [1] is reported as 10 fold and ~ 10 fold, the “peak plasma concentration relative to that predicted from a uniform distribution of the compound administered” value [2, 4] is reported as “about 20%” and the “time plasma remains at plateau level” value [2, 4] is reported as “about 50 min”. The “time to reach plasma plateau level” value [2, 4] was 10 to 15 min, the “peak plasma level relative to that expected from a uniform distribution of the drug” value [2, 5] was “about 20%” and the plasma clearance half-life [2, 5] was 22 min. The “AUC s.e.m. Tumour” value [2, 6] was 2.01 M min (x 103), the “AUC s.e.m. Tumour” value [2, 7] was 21.2 M min (x 103) and the “AUC s.e.m. Tumour” value [2, 8] was 0.310 M min (x 103). For the same molecule, the “AUC s.e.m. Tumour” value [2, 9] was 4.09 M min (x 103), the “AUC s.e.m. Tumour” value [2, 10] was 4.62 M min (x 103) and the “AUC s.e.m. Tumour” value [2, 11] was 6.72 M min (x 103). For the same molecule, the “AUC s.e.m. Tumour” value ([2]; Saline i.t. 0.006 umol g-1) was 2.64 M min (x 103), the “AUC s.e.m. Plasma” value [2, 6] was 2.54 M min (x 103) and the “AUC s.e.m. Plasma” value [2, 7] was 27.4 M min (x 103). For the same molecule, the “AUC s.e.m. Plasma” value [2, 8] was 0.543 M min (x 103), the “AUC s.e.m. Plasma” value [2, 9] was 5.41 M min (x 103) and the “AUC s.e.m. Plasma” value [2, 10] was 5.73 M min (x 103). The “AUC s.e.m. Plasma” value [2, 11] was 9.26 M min (x 103), the “AUC s.e.m. Plasma” value ([2]; Saline i.p. 0.015 umol g-1) was 0.100 M min (x 103) and the “AUC s.e.m. Plasma” value ([2]; Saline i.t. 0.006 umol g-1) was 0.054 M min (x 103). For the same molecule, the “AUC s.e.m. Plasma” value ([2]; Saline i.v. 0.005 umol g-1) was 0.041 M min (x 103), the “AUC s.e.m. Plasma” value ([2]; Saline i.v. 0.015 umol g-1) was 0.177 M min (x 103) and the Half life s.e.m. [2, 12] was 19.7 min. For the same molecule, the “Peak concentration + s.e.m.” value [2, 12] was 58.2 µM, the Half life s.e.m. [2, 13] was 36.6 min and the “Peak concentration + s.e.m.” value [2, 13] was 401 µM. For the same molecule, the Half life s.e.m. [2, 14] was 22.4 min, the “Peak concentration + s.e.m.” value [2, 14] was 16.2 µM and the Half life s.e.m. [2, 15] was 26.5 min. For the same molecule, the “Peak concentration + s.e.m.” value [2, 15] was 104 µM, the Half life s.e.m. [2, 16] was 22.3 min and the “Peak concentration + s.e.m.” value [2, 16] was 127 µM. For the same molecule, the Half life s.e.m. [2, 17] was 33.1 min, the “Peak concentration + s.e.m.” value [2, 17] was 96.3 µM and the Half life s.e.m. [2, 18] was 7.84 min. The “Peak concentration + s.e.m.” value [2, 18] was 6.78 µM, the Half life s.e.m. [2, 19] was 9.79 min and the “Peak concentration + s.e.m.” value [2, 19] was 3.68 µM. The Half life s.e.m. ([2]; plasma, Saline i.v. 0.005 umol g-1) was 8.86 min, the Peak concentration ([2]; plasma, Saline i.v. 0.005 umol g-1, 1 min, n = 1) was 4.06 µM and the Half life s.e.m. ([2]; plasma, Saline i.v. 0.015 umol g-1, linear fit to terminal elimination phase) was 9.64 min. The volume of distribution ([2]; saline i.v. 0.015 umol g-1, non-linear regression data) was 0.63 mL/g, the distribution phase half-life [2, 20] was 1.7 min and the elimination half-life [2, 20] was 9.2 min. For the same molecule, the “factor by which plasma concentrations lie below the tumour concentration” value ([2]; single i.t. injection of 0.1 ml 2 x 10^-3 M NITP) was no less than 20, the “binding of NITP in tumours” value (CaNT tumours; direct injection of NITP saline solution into tumours) was “substantial binding” and the “binding of NITP in tumours” value (CaNT tumours; i.v. injection of 2 x 10^-3 M solution in saline) was “little binding”. The “proportion of total cells in the region of bound NITP metabolites” value (CaNT tumours; tumour excised 30 min after oral 0.09 umol g-1 NITP in Molecusol) was 17%, the “proportion of total cells in the region of bound NITP metabolites” value (CaNT tumours; tumour excised 90 min after oral 0.45 umol g-1 NITP in Molecusol) was 19% and the toxicity ([3]; NITP in Molecusol i.p., dose reduced by a factor of 5 (0.09 umol g-1)) was “no toxicity”. For the same molecule, the tolerability ([3]; oral, up to 0.9 umol g-1 NITP in Molecusol (20 umol g-1)) was “well tolerated with no obvious toxicity”.
